{
  "source": "patent US10842789B2",
  "about": "“Treatment of schizophrenia” (PIERRE FABRE MEDICAMENT, priority 2017, dated 2020)",
  "key": {"[1]": {"system": "D2 receptor", "conditions": "healthy subjects, after two single dose levels; cited from earlier work"}, "[2]": {"target": "T1, human recombinant dopamine D2S receptor (Homo sapiens, UniProt P14416)", "T1 construct": "expressed in transfected cells", "T1 sequence (P14416 1-414 isoform P14416-2)": "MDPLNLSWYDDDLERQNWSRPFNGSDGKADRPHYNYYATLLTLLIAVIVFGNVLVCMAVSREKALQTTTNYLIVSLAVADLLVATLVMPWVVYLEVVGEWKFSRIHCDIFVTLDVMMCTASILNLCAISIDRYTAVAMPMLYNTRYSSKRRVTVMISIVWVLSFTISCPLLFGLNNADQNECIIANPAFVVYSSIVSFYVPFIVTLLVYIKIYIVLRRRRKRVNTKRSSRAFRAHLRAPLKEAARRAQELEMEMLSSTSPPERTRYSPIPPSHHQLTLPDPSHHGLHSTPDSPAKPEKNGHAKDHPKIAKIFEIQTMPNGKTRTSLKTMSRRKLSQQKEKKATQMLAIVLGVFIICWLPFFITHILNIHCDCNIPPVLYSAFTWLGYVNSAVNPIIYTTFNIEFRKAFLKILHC", "test": "[3H] spiperone binding, cells expressing human recombinant dopamine D2S receptors", "procedure": "(§1) The activity of F17464 was evaluated at recombinant dopaminergic receptors in vitro for its profile at D2 and D3 receptor. […] F17464 was also evaluated for its agonist, partial agonist, or antagonist activity at the dopamine D3 receptor by using the MAP-kinase activity test on human recombinant dopamine D3 receptors (Cussac et al., Mol. Pharmacol. 1999, 56, 1025-1030).\n(§2) As used herein, the term “selective D3 antagonist” refers to a D3 antagonist, as defined here above, that has more affinity for the D3 receptor than for the D2 receptor (D2S and/or D2L). Affinity of a compound for a receptor is usually expressed as a Ki value. Preferentially, the relative binding affinities are determined in competitive radioligand binding studies using cells expressing human recombinant dopamine D3, D2S or D2L receptors (Newman-Tancredi et al. British Journal of Pharmacology, 2007, 151, 237-252). More preferentially, it is defined in [^3H] spiperone binding studies using cells expressing human recombinant dopamine D3 receptors or human recombinant dopamine D2L or D2S receptors (Cussac et al. Naunyn-Schmiedeberg's Arch Pharmacol, 2000, 361, 569-572)."}, "[3]": {"system": "patients with acute exacerbation of schizophrenia", "test": "Double-blind placebo-controlled phase II study, patients with acute exacerbation of schizophrenia", "format": "in vivo, human", "procedure": "N-(3-{4-[4-(8-oxo-8H-[1,3]dioxolo[4,5-g]chromen-7-yl)-butyl]-piperazin-1-yl}-phenyl)-methanesulfonamide hydrochloride has been tested in a placebo-controlled study of patients with an acute exacerbation of schizophrenia.\nThis double-blind, parallel group, multicenter study included patients with acute exacerbation of schizophrenia treated either with F17464 fixed dose 40 mg (20 mg bid) or placebo (randomization 1:1) for 6 weeks as antipsychotic monotherapy. The primary objective was to evaluate the efficacy of F17464 in comparison to placebo. The primary efficacy criterion was the PANSS (Positive and Negative Syndrome Scale) total score change from baseline to Day 43 on the Full Analysis Set (FAS).\nInclusion criteria included a well-documented diagnosis of schizophrenia for a minimum of 1 year, and a recent acute exacerbation characterized by a PANSS total score at screening ≥70 and <120 with no significant change of the PANSS positive subscore between the screening and randomization visits; and Clinical Global Impression of Severity (CGI-S) score ≥4.\nAll patients had discontinued previous treatments within the week prior to administration of study medication.\nFollowing screening, patients were maintained in hospital till the 3rd week of treatment. Patients who had CGI-I (Clinical Global Impression of Improvement) score of ≤3 after 3 or 4 weeks were then eligible for hospital discharge and could continue study participation as outpatients.\nThe PANSS scores of the tested patients were established each week.\nSchizophrenia History: Before Screening Visit • Patient with a current primary diagnosis of schizophrenia undergoing an acute exacerbation with prominent “active phase” symptoms, as described by the Diagnostic and Statistical Manual of Mental Disorders, 4th edition—Text Revision (DSM IV-TR) using the MINI 6.0 (Mini-International Neuropsychiatric Interview) for schizophrenia and psychotic disorders related to DSM IV-TR; • For a minimum of 1 year, well-documented diagnosis with the first hospitalization for acute exacerbation of schizophrenia; • Since the diagnosis of schizophrenia, the average number of hospitalizations should be no higher than 2 per year (the minimum duration of hospitalization should be more than 4 days); • During the year before screening visit, maximum 3 acute psychotic episodes that required hospitalization or change of antipsychotic medication or other therapeutic intervention; • Adequate clinical response to well-conducted treatment courses during previous acute episodes. A well conducted treatment course is defined as an antipsychotic treatment with the usual doses for at least 4 weeks. Current Acute Episode: • Structured Clinical Interview for the Positive And Negative Syndrome Scale (SCI-PANSS) with a PANSS total score ≥70 to <120 (at screening and randomization visits); • Rating of at least 4 (moderate) on at least 2 of the following 4 PANSS positive symptoms: delusions, hallucinatory behavior, conceptual disorganization, suspiciousness/persecution; • Clinical Global Impression of Severity (CGI-S) score ≥4 (moderate or severe). • Antipsychotic initiated for this acute episode and/or ongoing chronic antipsychotic treatment, with a maximum of 2 antipsychotics in total needed to be changed (due to inefficacy or safety reasons); • Hospitalization and/or treatment for the current psychotic episode for less than 2 weeks prior to screening visit; • No significant improvement of PANSS total score between enrolment (screening visit) and inclusion (randomization visit) corresponding to a score improvement <20% on positive symptoms subscale. Examination: • Normal physical examination results, vital signs and clinical laboratory test results or other results judged not clinically significant by the investigator; • Body mass index (BMI)≥18 and ≤35 kg/m^2 inclusive. […]"}, "[4]": {"target": "T2, D3 (Homo sapiens, UniProt P35462)", "T2 construct": "from tissue; host or cells: brain of healthy subjects in vivo (PET)", "T2 sequence (P35462 whole entry)": "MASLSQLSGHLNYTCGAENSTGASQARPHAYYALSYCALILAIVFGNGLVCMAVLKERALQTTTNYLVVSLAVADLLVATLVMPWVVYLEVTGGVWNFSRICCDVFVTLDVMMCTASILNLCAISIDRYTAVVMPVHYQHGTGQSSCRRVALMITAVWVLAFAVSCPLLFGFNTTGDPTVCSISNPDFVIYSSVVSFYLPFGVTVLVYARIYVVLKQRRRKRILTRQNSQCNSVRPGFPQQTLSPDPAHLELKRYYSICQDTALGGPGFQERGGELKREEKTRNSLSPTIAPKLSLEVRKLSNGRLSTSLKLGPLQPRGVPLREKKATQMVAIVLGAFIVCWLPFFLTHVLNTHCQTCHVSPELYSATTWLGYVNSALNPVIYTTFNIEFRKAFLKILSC", "conditions": "healthy subjects, after two single dose levels; cited from earlier work"}, "[5]": {"target": "T3, human recombinant dopamine D2L receptor (Homo sapiens, UniProt P14416)", "T3 construct": "expressed in transfected cells", "T3 sequence (P14416 whole entry)": "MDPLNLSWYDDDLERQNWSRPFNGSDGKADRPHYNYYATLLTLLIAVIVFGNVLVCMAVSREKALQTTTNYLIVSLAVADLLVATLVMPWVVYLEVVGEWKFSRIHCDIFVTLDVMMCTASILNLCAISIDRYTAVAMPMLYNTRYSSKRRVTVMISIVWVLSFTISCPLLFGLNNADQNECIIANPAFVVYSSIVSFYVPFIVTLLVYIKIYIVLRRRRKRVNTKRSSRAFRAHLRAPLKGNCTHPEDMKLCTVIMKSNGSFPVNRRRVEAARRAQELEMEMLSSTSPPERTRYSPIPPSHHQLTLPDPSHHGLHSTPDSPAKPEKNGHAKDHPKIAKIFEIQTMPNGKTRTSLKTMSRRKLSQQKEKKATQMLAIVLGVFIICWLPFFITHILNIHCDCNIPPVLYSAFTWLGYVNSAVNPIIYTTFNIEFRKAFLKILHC", "test": "[3H] spiperone binding, cells expressing human recombinant dopamine D2L receptors", "procedure": "as §1, §2"}, "[6]": {"conditions": "F17464 versus placebo, FAS population n = 67"}, "[7]": {"conditions": "F17464 versus placebo, NS subgroup n = 29"}, "[8]": {"conditions": "NS subgroup versus FAS population"}, "[9]": {"conditions": "NS subgroup versus FAS population, score points"}, "[10]": {"conditions": "baseline to end of treatment, FAS"}},
  "note": "pKi: −log10 of the molar value. Marks after values point to notes of the source that are not given here.",
  "data": [
    {"smiles": "CS(=O)(=O)Nc1cccc(N2CCN(CCCCc3coc4cc5c(cc4c3=O)OCO5)CC2)c1", "note": "[F17464, N-(3-{4-[4-(8-oxo-8H-[1,3]dioxolo[4,5-g]chromen-7-yl)-butyl]-piperazin-1-yl}-phenyl)-methanesulfonamide]", "values": [
      {"measurement": "binding rate to D2 receptor (PET)", "setting": "[1]", "value": "modest"},
      {"measurement": "affinity for dopamine D2S receptor, times weaker than D3", "setting": "[2]; D2S versus D3", "value": 38, "unit": "times"},
      {"measurement": "pKi", "setting": "[2]; [3H] spiperone binding", "value": 8.19},
      {"measurement": "clinically relevant hepatic, metabolic or cardio-vascular disorder", "setting": "[3]; 20 mg bid, 6 weeks", "value": "no clinically relevant hepatic, metabolic (including clinically relevant weight gain) or cardio-vascular disorder"},
      {"measurement": "overall incidence of treatment-emergent adverse events (TEAEs)", "setting": "[3]; 20 mg bid, 6 weeks", "value": 70.1, "unit": "%"},
      {"measurement": "Treatment effect on change from baseline, PANSS general psychopathology [LSmean (SE)]", "setting": "[3]; [6]", "value": "−3.6 (1.3) *"},
      {"measurement": "Treatment effect on change from baseline, PANSS negative symptoms [LSmean (SE)]", "setting": "[3]; [6]", "value": "−0.7 (0.6)^"},
      {"measurement": "Treatment effect on change from baseline, PANSS positive symptoms [LSmean (SE)]", "setting": "[3]; [6]", "value": "−1.9 (1.0) *"},
      {"measurement": "Treatment effect on change from baseline, PANSS general psychopathology [LSmean (SE)]", "setting": "[3]; [7]", "value": "−6.4 (2.0) *"},
      {"measurement": "Treatment effect on change from baseline, PANSS negative symptoms [LSmean (SE)]", "setting": "[3]; [7]", "value": "−2.7 (1.1) *"},
      {"measurement": "Treatment effect on change from baseline, PANSS positive symptoms [LSmean (SE)]", "setting": "[3]; [7]", "value": "−4.3 (1.6) *"},
      {"measurement": "Treatment effect on change from baseline, PANSS total score [LSmean (SE)]", "setting": "[3]; [7]", "value": "−13 (4.1) *"},
      {"measurement": "PANSS general psychopathology, change from baseline [LSmean (SE)]", "setting": "[3]; FAS population n = 67, Day 43", "value": "−6.6 (1.0) *"},
      {"measurement": "PANSS negative symptoms, change from baseline [LSmean (SE)]", "setting": "[3]; FAS population n = 67, Day 43", "value": "−1.7 (0.4)^"},
      {"measurement": "PANSS positive symptoms, change from baseline [LSmean (SE)]", "setting": "[3]; FAS population n = 67, Day 43", "value": "−6.3 (0.8) *"},
      {"measurement": "Discontinuation for Adverse Event, number of patients", "setting": "[3]; FAS, n = 67", "value": 2},
      {"measurement": "Discontinuation for Adverse Event, percent of patients", "setting": "[3]; FAS, n = 67", "value": "(3.0%)"},
      {"measurement": "Discontinuation for Lack Of Efficacy/Worsening of schizophrenia, number of patients", "setting": "[3]; FAS, n = 67", "value": 11},
      {"measurement": "Discontinuation for Lack Of Efficacy/Worsening of schizophrenia, percent of patients", "setting": "[3]; FAS, n = 67", "value": "(16.4%)"},
      {"measurement": "reduction of PANSS total score versus placebo over time", "setting": "[3]; From Day 22, FAS, LOCF", "value": "statistically higher than in placebo group"},
      {"measurement": "PANSS general psychopathology, change from baseline [LSmean (SE)]", "setting": "[3]; NS subgroup n = 29, Day 43", "value": "−9.3 (1.5) *"},
      {"measurement": "PANSS negative symptoms, change from baseline [LSmean (SE)]", "setting": "[3]; NS subgroup n = 29, Day 43", "value": "−4.3 (0.8) *"},
      {"measurement": "PANSS positive symptoms, change from baseline [LSmean (SE)]", "setting": "[3]; NS subgroup n = 29, Day 43", "value": "−8.4 (1.2) *"},
      {"measurement": "PANSS total score, adjusted change from baseline [LSmean (SE)]", "setting": "[3]; NS subgroup n = 29, Day 43", "value": "−21.8 (2.9) *"},
      {"measurement": "Difference of treatment effect, PANSS general psychopathology, percent", "setting": "[3]; [8]", "value": 78, "unit": "%"},
      {"measurement": "Difference of treatment effect, PANSS negative symptoms, percent", "setting": "[3]; [8]", "value": 285, "unit": "%"},
      {"measurement": "Difference of treatment effect, PANSS positive symptoms, percent", "setting": "[3]; [8]", "value": 126, "unit": "%"},
      {"measurement": "Difference of treatment effect, PANSS total score, percent", "setting": "[3]; [8]", "value": 110, "unit": "%"},
      {"measurement": "Difference of treatment effect, PANSS general psychopathology", "setting": "[3]; [9]", "value": 2.8},
      {"measurement": "Difference of treatment effect, PANSS negative symptoms", "setting": "[3]; [9]", "value": 2},
      {"measurement": "Difference of treatment effect, PANSS positive symptoms", "setting": "[3]; [9]", "value": 2.4},
      {"measurement": "Difference of treatment effect, PANSS total score", "setting": "[3]; [9]", "value": 6.8},
      {"measurement": "Response rate, PANSS total score reduction by 20%", "setting": "[3]; [10]", "value": 49.3, "unit": "%"},
      {"measurement": "Response rate, PANSS total score reduction by 30%", "setting": "[3]; [10]", "value": 27.0, "unit": "%"},
      {"measurement": "Time to first sustained PANSS 20% or 30% response", "setting": "[3]; compared to placebo group, from D21 up to Day 42", "value": "Shorter"},
      {"measurement": "PANSS positive score and positive factor, defined by Marder, versus placebo", "setting": "[3]; secondary criteria, FAS", "value": "statistically significantly greater"},
      {"measurement": "D3 binding rate (PET)", "setting": "[4]", "value": "strong and long-lasting"},
      {"measurement": "affinity for dopamine D2L receptor, times weaker than D3", "setting": "[5]; D2L versus D3", "value": 71, "unit": "times"},
      {"measurement": "pKi", "setting": "[5]; [3H] spiperone binding", "value": 7.92}
    ]}
  ]
}
